In patent US20240270821A1, “GIP/GLP1/GCG TRI-RECEPTOR AGONISTS AND USES THEREOF” (priority 2023, published 2024):
pEC50: −log10 of the molar value. Read-outs that look alike come from different tables or passages of the source. Starred links: 1 amine or outer side, 2 acyl side, 3 side chain; linkers in the order of their positions; H or OH if unused. Non-standard residues stand in square brackets, D forms with d. Groups on a side chain read outwards from the residue. No end group written: not given here. *: point of attachment. C20 diacid = O=C(O)CCCCCCCCCCCCCCCCCCC(=O)*; C18 diacid = O=C(O)CCCCCCCCCCCCCCCCC(=O)*; αMePhe(2-F) = C[C@](N)(Cc1ccccc1F)C(=O)O; γGlu = O=C(O)[C@H](CCC(=O)[*:2])N[*:1]; αMe4Pal = C[C@](N)(Cc1ccncc1)C(=O)O; αMeY = C[C@](N)(Cc1ccc(O)cc1)C(=O)O; αMeF = C[C@](N)(Cc1ccccc1)C(=O)O; 4Pal = N[C@@H](Cc1ccncc1)C(=O)O; Aad = N[C@@H](CCCC(=O)O)C(=O)O; αMeL = CC(C)C[C@](C)(N)C(=O)O; αMeS = C[C@](N)(CO)C(=O)O; Orn = NCCC[C@H](N)C(=O)O; AEEA = NCCOCCOCC(=O)O; Aib = CC(C)(N)C(=O)O

Tests used:
Format in all cases: cell-based
hGIPR [1] = target: T1, hGIPR (Homo sapiens, UniProt P48546); experiment: Functional cAMP activity in the presence of 1% HSA; conditions: read-out: cAMP Rel EC50, hGIPR
T1 sequence (P48546 22-466): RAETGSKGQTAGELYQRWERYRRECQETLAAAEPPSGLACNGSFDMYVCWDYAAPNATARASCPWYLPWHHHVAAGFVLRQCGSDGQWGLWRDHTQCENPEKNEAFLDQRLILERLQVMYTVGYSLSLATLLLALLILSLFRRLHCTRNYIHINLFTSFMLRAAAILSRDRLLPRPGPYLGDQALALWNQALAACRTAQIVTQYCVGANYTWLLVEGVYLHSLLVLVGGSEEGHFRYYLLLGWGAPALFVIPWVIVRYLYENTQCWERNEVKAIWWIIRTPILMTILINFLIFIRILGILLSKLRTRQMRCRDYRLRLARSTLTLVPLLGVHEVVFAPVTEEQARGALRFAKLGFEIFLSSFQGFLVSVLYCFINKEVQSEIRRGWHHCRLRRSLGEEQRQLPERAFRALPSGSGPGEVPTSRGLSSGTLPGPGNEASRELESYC

hGLP-1R [2] = target: T2, hGLP-1R (Homo sapiens, UniProt P43220); experiment: Functional cAMP activity in the presence of 1% HSA; conditions: read-out: cAMP Rel EC50, hGLP-1R
human GcgR = human GcgR (Homo sapiens, UniProt P47871); experiment: Functional cAMP activity in the presence of 1% HSA; conditions: read-out: cAMP Rel EC50, hGcgR
hGIPR [3] = target: T1, hGIPR; experiment: Functional cAMP activation in the presence of 0.1% casein (no HSA); conditions: read-out: Relative cAMP EC50, hGIPR;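 for Relative cAMP EC50, hGIPR: intracellular cAMP rise after 30 min at 37 °C read by HTRF against a standard curve, scaled between buffer alone (0%) and top control ligand concentration (100%), four-parameter fit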;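 for Relative cAMP EC50, hGLP-1R: intracellular cAMP rise after 30 min at 37 °C read by HTRF, normalized between buffer only (0%) and maximal control ligand (100%), four-parameter variable-slope fit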;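 for Relative cAMP EC50, hGcgR: intracellular cAMP rise after 30 min at 37 °C, read by HTRF against a cAMP standard curve, scaled from buffer only (0%) to maximal control ligand response (100%)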
hGLP-1R [4] = target: T2, hGLP-1R; experiment: as above; conditions: read-out: Relative cAMP EC50, hGLP-1R
hGcgR = hGcgR (Homo sapiens, UniProt P47871); experiment: as above; conditions: read-out: Relative cAMP EC50, hGcgR;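 note: intracellular cAMP rise after 30 min at 37 °C, read by HTRF against a cAMP standard curve, scaled from buffer only (0%) to maximal control ligand response (100%)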
[5] = in the presence of 0.1% casein (no HSA), geometric mean
[6] = 0.1% casein, no HSA, geometric mean

hGcgR, sequence (P47871 26-477): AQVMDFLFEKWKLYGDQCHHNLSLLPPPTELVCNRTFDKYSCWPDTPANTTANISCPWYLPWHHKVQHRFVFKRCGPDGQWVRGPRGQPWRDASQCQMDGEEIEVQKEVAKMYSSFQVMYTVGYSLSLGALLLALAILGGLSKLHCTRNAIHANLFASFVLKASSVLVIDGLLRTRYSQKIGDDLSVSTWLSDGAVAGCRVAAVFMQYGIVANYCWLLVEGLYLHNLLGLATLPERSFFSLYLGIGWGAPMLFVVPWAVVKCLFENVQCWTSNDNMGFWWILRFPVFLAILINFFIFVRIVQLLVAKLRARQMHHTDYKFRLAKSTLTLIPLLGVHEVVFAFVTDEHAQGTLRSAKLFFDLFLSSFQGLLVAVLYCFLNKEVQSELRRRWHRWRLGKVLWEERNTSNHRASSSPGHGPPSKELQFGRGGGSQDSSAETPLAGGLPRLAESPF
human GcgR, sequence (P47871 26-477): as above
T2 sequence (P43220 24-463): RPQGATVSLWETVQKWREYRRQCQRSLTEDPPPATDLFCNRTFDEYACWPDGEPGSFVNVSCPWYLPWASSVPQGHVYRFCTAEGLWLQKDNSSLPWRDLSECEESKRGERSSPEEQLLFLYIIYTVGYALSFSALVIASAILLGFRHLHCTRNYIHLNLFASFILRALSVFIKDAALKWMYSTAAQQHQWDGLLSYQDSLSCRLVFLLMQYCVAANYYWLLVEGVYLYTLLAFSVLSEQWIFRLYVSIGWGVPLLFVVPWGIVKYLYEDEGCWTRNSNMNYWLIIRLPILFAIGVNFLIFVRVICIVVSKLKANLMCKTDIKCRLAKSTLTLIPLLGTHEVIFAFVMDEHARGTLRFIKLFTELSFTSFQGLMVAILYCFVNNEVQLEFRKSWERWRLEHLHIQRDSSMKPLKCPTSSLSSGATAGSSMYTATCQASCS

Compound	pEC50 (hGIPR [1])	pEC50 (hGLP-1R [2])	pEC50 (human GcgR)	pEC50 (hGIPR [3]; [5])	pEC50 (hGLP-1R [4]; [5])	pEC50 (hGcgR; [5])	pEC50 (hGIPR [3])	pEC50 (hGLP-1R [4])	pEC50 (hGcgR)	pEC50 (hGIPR [3]; [6])	pEC50 (hGLP-1R [4]; [6])	pEC50 (hGcgR; [6])
CC[C@H](C)[C@H](NC(=O)[C@H](Cc1ccccc1)NC(=O)[C@H](C)NC(=O)[C@](C)(Cc1ccncc1)NC(=O)[C@H](CCC(N)=O)NC(=O)[C@H](C)NC(=O)[C@H](CCCCNC(=O)COCCOCCNC(=O)CC[C@H](NC(=O)CC[C@H](NC(=O)CCCCCCCCCCCCCCCCC(=O)O)C(=O)O)C(=O)O)NC(=O)[C@H](CCCN)NC(=O)[C@H](CC(=O)O)NC(=O)[C@H](CC(C)C)NC(=O)[C@](C)(CC(C)C)NC(=O)[C@H](CCC(N)=O)NC(=O)[C@H](CO)NC(=O)[C@H](Cc1ccncc1)NC(=O)[C@H](CC(=O)O)NC(=O)[C@H](CO)NC(=O)[C@@H](NC(=O)[C@H](Cc1ccccc1)NC(=O)[C@@H](NC(=O)CNC(=O)[C@H](CCC(N)=O)NC(=O)C(C)(C)NC(=O)[C@@H](N)Cc1ccc(O)cc1)[C@@H](C)O)[C@@H](C)O)C(=O)N[C@@H](CCC(=O)O)C(=O)N[C@@H](Cc1ccc(O)cc1)C(=O)N[C@@H](CC(C)C)C(=O)N[C@H](C(=O)N[C@@H](CCC(=O)O)C(=O)N[C@H](C)C(=O)NCC(=O)N1CCC[C@H]1C(=O)N[C@@H](CO)C(=O)N[C@@H](CO)C(=O)NCC(=O)N[C@@H](C)C(=O)N1CCC[C@H]1C(=O)N1CCC[C@H]1C(=O)N1CCC[C@H]1C(=O)N[C@@H](CO)C(=O)NCC(=O)N[C@@H](CO)C(=O)N[C@@H](CCC(=O)O)C(N)=O)[C@@H](C)CC [Example 1022]	7.55	6.69	6.23	9.46	8.48	8.16	–	–	–	–	–	–
H-Y[Aib]QGT[αMePhe(2-F)]TSD[4Pal][αMeS]I[αMeL]LD[Orn]K([γGlu-γGlu-C18 diacid])AQ[αMe4Pal]EFI[dE][αMeY]LVEGGPSSGEPPPSGGGE-NH2 [Example 739]	9.29	7.57	6.81	–	–	–	10.82	9.46	8.80	–	–	–
H-Y[Aib]QGTFTSDYSI[αMeL]LDKQAAK([AEEA-AEEA-γGlu-C20 diacid])QFVEWLIA[Aib]GPSSGEPPPSEG-NH2 [Example 326]	7.08	6.76	5.82	9.52	9.26	8.27	–	–	–	–	–	–
Y[Aib]QGT[αMePhe(2-F)]TSD[4Pal]SILLDKK([γGlu-γGlu-C18 diacid])AQ[Aib]AFIEYLQEGGPSSGAPPPSGTEE-NH2 [Example 580]	8.20	7.26	6.04	–	–	–	10.37	9.21	8.14	–	–	–
H-Y[Aib]Q[dA]T[αMePhe(2-F)]TSD[4Pal]SI[αMeL]LD[Orn]K([AEEA-γGlu-C18 diacid])AQ[αMe4Pal]EFI[dE][αMeY]LVEGGPSSGAPPPSGS-NH2 [Example 1205]	7.79	7.30	6.49	–	–	–	–	–	–	9.82	9.28	8.48
H-Y[Aib]QGT[αMePhe(2-F)]TSD[4Pal][αMeS]I[αMeL]LD[Orn]K([AEEA-γGlu-C18 diacid])AQ[αMe4Pal]EFI[dE][αMeY]LIEGGPSSGAPPPSGSEE-NH2 [Example 713]	9.06	7.42	6.74	–	–	–	11.03	9.48	8.77	–	–	–
H-Y[Aib]QGTFTSD[4Pal]SK[αMeL]LDKK([AEEA-γGlu-C18 diacid])AQ[Aib]AFIEYLIE[Aib]GPSSGAPPPSGSEE-NH2 [Example 902]	7.55	6.63	5.87	9.72	8.59	7.80	–	–	–	–	–	–
Y[Aib]QGT[αMePhe(2-F)]TSD[4Pal]SILLDKK([γGlu-γGlu-C18 diacid])AQ[Aib]AFIEYL[Aad]EGGPSSGAPPPSGTGE-NH2 [Example 661]	8.34	7.29	6.80	–	–	–	10.18	8.95	8.75	–	–	–
H-Y[Aib]QGTFTSD[4Pal]SQ[αMeL]LDKK([AEEA-γGlu-γGlu-C18 diacid])AQ[αMe4Pal]AFIEWLIEGGPSSGAPPPSGS-NH2 [Example 871]	7.45	6.64	5.69	9.70	8.53	7.90	–	–	–	–	–	–
H-Y[Aib]QGTFTSD[4Pal]SQ[αMeL]LDKK([γGlu-γGlu-C18 diacid])AQ[αMe4Pal]AFIEYLIAGGPSSGEPPPSGS-NH2 [Example 968]	7.93	6.99	6.20	10.03	8.98	8.33	–	–	–	–	–	–
H-Y[Aib]QGT[αMePhe(2-F)]TSDFSILLDKQAQK([AEEA-AEEA-γGlu-C20 diacid])AFIEYLLEGGPSSGEPPPSEG-NH2 [Example 346]	7.55	6.29	5.37	10.13	8.93	7.81	–	–	–	–	–	–
H-Y[Aib]QGT[αMeF]TSD[4Pal][αMeS]I[αMeL]LD[Orn]K([γGlu-γGlu-C18 diacid])AQ[αMe4Pal]EFI[dE][αMeY]LIEGGPSSGAPPPSGE-NH2 [Example 1170]	9.18	7.30	6.60	11.11	9.40	8.61	–	–	–	–	–	–
H-Y[Aib]QGTFTSD[4Pal]SQ[αMeL]LD[Orn]K([γGlu-γGlu-C18 diacid])AQ[αMe4Pal]AFI[dE][αMeY]LIEGGPSSGAPPPSGSEE-NH2 [Example 1044]	7.05	5.95	5.62	9.05	7.97	7.73	–	–	–	–	–	–
H-Y[Aib]QGT[αMePhe(2-F)]TSD[4Pal]SI[αMeL]LD[Orn]K([AEEA-γGlu-C18 diacid])AQ[αMe4Pal][Orn]FI[dE][αMeY]LIEGGPSSGAPPPESEE-NH2 [Example 756]	8.79	7.55	6.43	–	–	–	11.02	9.67	8.65	–	–	–
H-Y[Aib]QGTFTSD[4Pal]S[Orn][αMeL]LDKK([γGlu-γGlu-C18 diacid])AQ[Aib]AFIE[αMeY]LIEGGPSSGAPPPSGS-NH2 [Example 941]	7.66	6.95	5.84	9.74	9.12	7.93	–	–	–	–	–	–
Y[Aib]QGTFTSD[4Pal]SR[αMeL]LDKK([γGlu-γGlu-C18 diacid])AQ[αMe4Pal]AFIE[αMe4Pal]LIEGGPSSGAPPPSGSEE-NH2 [Example 959]	7.61	6.30	6.50	9.66	8.30	8.58	–	–	–	–	–	–
H-Y[Aib]QGTFTSDFS[Orn][αMeL]LDKK([AEEA-γGlu-C18 diacid])AQ[Aib]AFIEYLLEGGPSSGAPPPGGE-NH2 [Example 63]	7.39	6.46	6.15	9.59	8.32	8.39	–	–	–	–	–	–
H-Y[Aib]QGT[αMePhe(2-F)]TSD[4Pal][αMeS]I[αMeL]LD[Orn]K([AEEA-γGlu-C18 diacid])AQ[Aib][Orn]FI[dE]YLIEGGPSSGEPPPSGTEE-NH2 [Example 533]	8.49	7.52	6.34	–	–	–	10.41	9.48	8.30	–	–	–
H-Y[Aib]QGTFTSD[4Pal]SQ[αMeL]LDKK([γGlu-γGlu-C18 diacid])AQ[αMe4Pal]AFIE[αMe4Pal]LIEGGPSSGAPPPSGSEE-NH2 [Example 957]	7.60	6.13	6.02	9.67	8.30	8.38	–	–	–	–	–	–
H-Y[Aib]QGTFTSDFS[Orn][αMeL]LDKK([AEEA-γGlu-C18 diacid])AQ[Aib]AFIEYLLE[Aib]GHSSGAPPPSGE-NH2 [Example 247]	7.89	6.54	6.35	10.10	8.55	8.75	–	–	–	–	–	–
H-Y[Aib]QGTFTSD[4Pal]SQ[αMeL]LD[Orn]K([AEEA-γGlu-C18 diacid])AQ[αMe4Pal]AFIE[αMeY]LIE[Aib]GPSSGEPPPSGSEE-NH2 [Example 1097]	7.56	6.85	6.12	9.87	8.80	8.21	–	–	–	–	–	–
